Data from patent US12338351B2, “Dip molding emulsion, method of producing glove, and glove” (Midori Anzen Co., Ltd., priority 2018, dated 2025).

Tests used:
Format in all cases: physicochemical
[1] = Dissolution rate in water of epoxy crosslinking agent; details: 25.0 g in 225 g water (25° C.), stirred 15 minutes, left to stand 1 hour
Procedure: 1. Precisely weigh 25.0 g of the epoxy crosslinking agent composition in a beaker, and add thereto 225 g of water (25° C.).
2. Vigorously stir and mix the resultant at room temperature (23° C.±2° C.) for 15 minutes, and leave the resulting mixture to stand for 1 hour.
3. Measure the volume (mL) of an oily matter precipitated on the bottom of the beaker.
The dissolution rate in water (%) was measured for the purpose of checking the solubility of each epoxy crosslinking agent in water. The dissolution rate in water can be measured by the following procedures.
1. Precisely weigh 25.0 g of the subject crosslinking agent composition in a beaker.
2. Add 225 g of 25° C. water, and vigorously stir the resultant at room temperature for 15 minutes using a magnetic stirrer.
3. After leaving the beaker to stand at room temperature for 1 hour, measure the volume (mL) of an oily matter precipitated on the bottom.

[2] = MIBK/water distribution ratio of epoxy crosslinking agent; details: 5.0 g water, 5.0 g MIBK, 0.5 g crosslinking agent, 23±2° C., average of three
Procedure: Method of measuring the MIBK/water distribution ratio: in a test tube, 5.0 g of water, 5.0 g of methyl isobutyl ketone (MIBK) and 0.5 g of the epoxy crosslinking agent are precisely weighed and mixed with stirring at 23° C.±2° C. for 3 minutes, and the resulting mixture is centrifuged at 1.0×103 G for 10 minutes and thereby separated into an aqueous layer and an MIBK layer, after which the MIBK layer is fractionated and weighed to calculate the MIBK/water distribution ratio using the following equation: MIBK/water distribution ratio (%)=(Weight of separated MIBK layer (g)−Weight of MIBK before separation (g))/Weight of added crosslinking agent (g)×100 • this measurement is performed three times, and an average value thereof is defined as the MIBK/water distribution ratio.
First, about 5.0 g of water, about 5.0 g of MIBK and about 0.5 g of the epoxy crosslinking agent are precisely weighed and added to a test tube. The weight of MIBK and that of the epoxy crosslinking agent are defined as M (g) and E (g), respectively.
This mixture is thoroughly mixed with stirring for 3 minutes at a temperature of 23° C.±2° C. and subsequently separated into an aqueous layer and an MIBK layer by 10-minute centrifugation at 1.0×10^3 G. Thereafter, the weight of the MIBK layer is measured and defined as ML (g). MIBK/water distribution ratio (%)=(ML (g)−M (g))/E (g)×100
The methyl isobutyl ketone (MIBK)/water distribution ratio (%) was measured for the purpose of checking the amount of the movement of each epoxy crosslinking agent into an MIBK layer in an environment similar to the environment in a latex liquid.
3. Fractionate the thus separated MIBK layer into a disposable cup using a Pasteur pipette and measure the weight of the MIBK layer.
4. Calculate the MIBK/water distribution ratio using the following equation: MIBK/water distribution ratio (%)=(Weight (g) of separated MIBK layer−Weight (g) of MIBK before separation))/(Weight (g) of added crosslinking agent)×100
5. Perform this measurement three times, and calculate the average value thereof as the MIBK/water distribution ratio.
It is noted here that a vortex mixer (VORTEX-GENIE 2 Mixer, standard model; manufactured by Scientific Industries, Inc.) was used for the stirring in the procedure 2.

[3] = Pot life (working life) of dip molding composition; details: XNBR NL120H(a)
Excerpt: The term “pot life” used herein represents a property of a dip molding composition, and a method of determining the “pot life” will be described below in the section of Examples. Specifically, the “pot life” refers to a period from the preparation of a dip molding composition to the formation of a cured film, in which period the use of the dip molding composition allows the resulting cured film to satisfy specific criteria.
In the present invention, the acceptable level of the pot life of the dip molding composition necessary for mass production is defined as a level at which a film produced using the dip molding composition that has been stored for at least 3 days satisfies a tensile strength of 20 MPa or higher and a fatigue durability of 240 minutes or longer, which are performances required as a glove.
The pot life is determined based on the time from the addition of an epoxy crosslinking agent in the preparation of a dip molding composition to adhesion of the dip molding composition to a glove forming mold. Moreover, the types of XNBRs and epoxy crosslinking agents used in dip molding compositions are shown in the respective Tables below.
The pot life of each dip molding composition was determined by the following procedures. The unit of the pot life is day. The dip molding compositions were prepared using the respective epoxy crosslinking agents and stored, and cured films were produced at one-day intervals. […] The number of days of storage until the last acceptable day was defined as the pot life. In this Experimental Example, experiments were conducted until day 7 as the longest duration of storage.

[4] = 0.5 parts by weight epoxy crosslinking agent, fatigue durability 240 minutes acceptable line, experiments until day 7

| Compound | Dissolution rate in water [1] | MIBK/water distribution ratio [2] | also measured |
| --- | --- | --- | --- |
| sorbitol polyglycidyl ether [epoxy crosslinking agent J] | – | – | Dissolution rate in water ([1]; listed as J): 94%; MIBK/water distribution ratio ([2]; listed as J): 23% |
| polyglycerol polyglycidyl ether [epoxy crosslinking agent K] | 100% | – | MIBK/water distribution ratio ([2]; listed as K): 6% |
| C(OCC1CO1)C(COCC1CO1)OCC1CO1 (stereo not drawn) [epoxy crosslinking agent H, glycerol triglycidyl ether] | 99% | 28% | Pot life [3, 4]: 2 days; Pot life ([3]; added amount of epoxy crosslinking agent increased to 1.0 part by weight): 3 days |
| CC(COCC1CO1)OCC1CO1 (stereo not drawn) [epoxy crosslinking agent M, propylene glycol diglycidyl ether] | 75% | 57% | – |
| sorbitol polyglycidyl ether [epoxy crosslinking agent I] | – | – | Dissolution rate in water ([1]; listed as I): 78%; MIBK/water distribution ratio ([2]; listed as I): 26% |
| polyethylene glycol diglycidyl ether [epoxy crosslinking agent N] | 99% | 4% | – |
| polyglycerol polyglycidyl ether [epoxy crosslinking agent L] | – | – | MIBK/water distribution ratio ([2]; listed as L): −10% |
| diglycerol triglycidyl ether [epoxy crosslinking agent G] | 88% | 36% | Pot life [3, 4]: 3 days |
